Assay results from PubChem BioAssay (NCI).
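Tested at 5 concentrations; 48 h exposure; 96-well plates; endpoints linearly interpolated, else capped at highest concentration. At the GI50, growth is halved. TGI is the concentration that stops growth completely.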

Assays:
Assay in all cases: NCI anticancer screen, dose series, 48 h
786-0 renal = system: 786-0 renal
A498 renal = system: A498 renal
A549 NSCLC = system: A549 NSCLC
ACHN renal = system: ACHN renal
CAKI-1 renal = system: CAKI-1 renal
CCRF-CEM leukemia = system: CCRF-CEM leukemia
COLO 205 colon = system: COLO 205 colon
DU-145 prostate = system: DU-145 prostate
EKVX NSCLC = system: EKVX NSCLC
HCC-2998 colon = system: HCC-2998 colon
HCT-116 colon = system: HCT-116 colon
HCT-15 colon = system: HCT-15 colon
HL-60(TB) leukemia = system: HL-60(TB) leukemia
HOP-62 NSCLC = system: HOP-62 NSCLC
HOP-92 NSCLC = system: HOP-92 NSCLC
HS 578T breast = system: HS 578T breast
HT29 colon = system: HT29 colon
IGROV1 ovarian = system: IGROV1 ovarian
K-562 leukemia = system: K-562 leukemia
KM12 colon = system: KM12 colon
LOX IMVI melanoma = system: LOX IMVI melanoma
M14 melanoma = system: M14 melanoma
MCF7 breast = system: MCF7 breast
MDA-MB-231 breast = system: MDA-MB-231 breast
MDA-MB-435 = system: MDA-MB-435
MOLT-4 leukemia = system: MOLT-4 leukemia
NCI-H226 lung = system: NCI-H226 lung
NCI-H23 lung = system: NCI-H23 lung
NCI-H522 lung = system: NCI-H522 lung
NCI/ADR-RES ovarian = system: NCI/ADR-RES ovarian
OVCAR-3 ovarian = system: OVCAR-3 ovarian
OVCAR-4 ovarian = system: OVCAR-4 ovarian
OVCAR-5 ovarian = system: OVCAR-5 ovarian
OVCAR-8 ovarian = system: OVCAR-8 ovarian
PC-3 prostate = system: PC-3 prostate
RPMI-8226 leukemia = system: RPMI-8226 leukemia
RXF 393 renal = system: RXF 393 renal
SF-268 CNS = system: SF-268 CNS
SF-295 CNS = system: SF-295 CNS
SF-539 CNS = system: SF-539 CNS
SK-MEL-2 melanoma = system: SK-MEL-2 melanoma
SK-MEL-28 melanoma = system: SK-MEL-28 melanoma
SK-OV-3 ovarian = system: SK-OV-3 ovarian
SN12C renal = system: SN12C renal
SNB-19 CNS = system: SNB-19 CNS
SNB-75 CNS = system: SNB-75 CNS
SR leukemia = system: SR leukemia
SW-620 colon = system: SW-620 colon
T-47D breast = system: T-47D breast
TK-10 renal = system: TK-10 renal
U251 CNS = system: U251 CNS
UACC-257 melanoma = system: UACC-257 melanoma
UACC-62 melanoma = system: UACC-62 melanoma
UO-31 renal = system: UO-31 renal
BT-549 breast = system: BT-549 breast
MALME-3M melanoma = system: MALME-3M melanoma
SK-MEL-5 melanoma = system: SK-MEL-5 melanoma
NCI-H460 lung = system: NCI-H460 lung

## CCCCCCCCCCCCCCCCOCC(COP(=O)(O)OCC1OC(n2cc(CC)c(=O)[nH]c2=O)CC1O)OC(=O)CCCCCCCCCCCCCCC (centres undefined)
786-0 renal
  TGI: > 100 µM
A498 renal
  TGI: > 100 µM
A549 NSCLC
  TGI: > 100 µM
ACHN renal
  TGI: > 100 µM
CAKI-1 renal
  TGI: > 100 µM
CCRF-CEM leukemia
  TGI: > 100 µM
COLO 205 colon
  TGI: > 100 µM
DU-145 prostate
  TGI: > 100 µM
EKVX NSCLC
  TGI: > 100 µM
HCC-2998 colon
  TGI: > 100 µM
HCT-116 colon
  TGI: > 100 µM
HCT-15 colon
  TGI: > 100 µM
HL-60(TB) leukemia
  TGI: > 100 µM
HOP-62 NSCLC
  TGI: > 100 µM
HOP-92 NSCLC
  TGI: > 100 µM
HS 578T breast
  TGI: > 100 µM
HT29 colon
  TGI: > 100 µM
IGROV1 ovarian
  TGI: > 100 µM
K-562 leukemia
  TGI: > 100 µM
KM12 colon
  TGI: > 100 µM
LOX IMVI melanoma
  TGI: > 100 µM
M14 melanoma
  TGI: > 100 µM
MCF7 breast
  TGI: > 100 µM
MDA-MB-231 breast
  TGI: > 100 µM
MDA-MB-435
  TGI: > 100 µM
MOLT-4 leukemia
  TGI: > 100 µM
NCI-H226 lung
  TGI: > 100 µM
NCI-H23 lung
  TGI: > 100 µM
NCI-H522 lung
  TGI: > 100 µM
NCI/ADR-RES ovarian
  TGI: > 100 µM
OVCAR-3 ovarian
  TGI: > 100 µM
OVCAR-4 ovarian
  TGI: > 100 µM
OVCAR-5 ovarian
  TGI: > 100 µM
OVCAR-8 ovarian
  TGI: > 100 µM
PC-3 prostate
  TGI: > 100 µM
RPMI-8226 leukemia
  TGI: > 100 µM
RXF 393 renal
  TGI: > 100 µM
SF-268 CNS
  TGI: > 100 µM
SF-295 CNS
  TGI: > 100 µM
SF-539 CNS
  TGI: > 100 µM
SK-MEL-2 melanoma
  TGI: > 100 µM
SK-MEL-28 melanoma
  TGI: > 100 µM
SK-OV-3 ovarian
  TGI: > 100 µM
SN12C renal
  TGI: > 100 µM
SNB-19 CNS
  TGI: > 100 µM
SNB-75 CNS
  TGI: > 100 µM
SR leukemia
  TGI: > 100 µM
SW-620 colon
  TGI: > 100 µM
T-47D breast
  TGI: > 100 µM
TK-10 renal
  TGI: > 100 µM
U251 CNS
  TGI: > 100 µM
UACC-257 melanoma
  TGI: > 100 µM
UACC-62 melanoma
  TGI: > 100 µM
UO-31 renal
  TGI: > 100 µM

## c1ccc(-c2c(-c3ccccc3)[n+](Cc3ccc4ccccc4c3)cn2Cc2ccc3ccccc3c2)cc1
ACHN renal
  GI50: 1470 nM
  TGI: 2.9 µM
HOP-92 NSCLC
  GI50: 122 nM
  TGI: 1.26 µM
HS 578T breast
  GI50: 1740 nM
  TGI: 4.91 µM
NCI/ADR-RES ovarian
  GI50: 2130 nM
  TGI: 5.12 µM

## C/C(=N/NC(=O)c1ccncc1)C(F)(F)F
A498 renal
  TGI: > 100 µM
BT-549 breast
  TGI: > 100 µM
CAKI-1 renal
  TGI: > 100 µM
COLO 205 colon
  TGI: > 100 µM
DU-145 prostate
  TGI: > 100 µM
HCC-2998 colon
  TGI: > 100 µM
HCT-116 colon
  TGI: > 100 µM
HCT-15 colon
  TGI: > 100 µM
HL-60(TB) leukemia
  TGI: > 100 µM
HOP-62 NSCLC
  TGI: > 100 µM
HOP-92 NSCLC
  TGI: > 100 µM
HS 578T breast
  TGI: > 100 µM
HT29 colon
  TGI: > 100 µM
IGROV1 ovarian
  TGI: > 100 µM
K-562 leukemia
  TGI: > 100 µM
KM12 colon
  TGI: > 100 µM
M14 melanoma
  TGI: > 100 µM
MALME-3M melanoma
  TGI: > 100 µM
MCF7 breast
  TGI: > 100 µM
MDA-MB-435
  TGI: > 100 µM
MOLT-4 leukemia
  TGI: > 100 µM
NCI-H226 lung
  TGI: > 100 µM
NCI-H23 lung
  TGI: > 100 µM
NCI-H522 lung
  TGI: > 100 µM
NCI/ADR-RES ovarian
  TGI: > 100 µM
OVCAR-3 ovarian
  TGI: > 100 µM
OVCAR-5 ovarian
  TGI: > 100 µM
OVCAR-8 ovarian
  TGI: > 100 µM
PC-3 prostate
  TGI: > 100 µM
RPMI-8226 leukemia
  TGI: > 100 µM
RXF 393 renal
  TGI: > 100 µM
SF-295 CNS
  TGI: > 100 µM
SK-MEL-2 melanoma
  TGI: > 100 µM
SK-MEL-28 melanoma
  TGI: > 100 µM
SK-MEL-5 melanoma
  TGI: > 100 µM
SK-OV-3 ovarian
  TGI: > 100 µM
SN12C renal
  TGI: > 100 µM
SNB-19 CNS
  TGI: > 100 µM
SNB-75 CNS
  TGI: > 100 µM
SR leukemia
  TGI: > 100 µM
T-47D breast
  TGI: > 100 µM
TK-10 renal
  TGI: > 100 µM
U251 CNS
  TGI: > 100 µM
UACC-62 melanoma
  TGI: > 100 µM
UO-31 renal
  TGI: > 100 µM

## COc1cc2c(cc1OS(C)(=O)=O)N=C[C@@H]1CCCN1C2=O
786-0 renal
  TGI: > 100 µM
A498 renal
  TGI: > 100 µM
A549 NSCLC
  TGI: > 100 µM
ACHN renal
  TGI: > 100 µM
CAKI-1 renal
  TGI: > 100 µM
CCRF-CEM leukemia
  TGI: > 100 µM
COLO 205 colon
  TGI: > 100 µM
DU-145 prostate
  TGI: > 100 µM
EKVX NSCLC
  TGI: > 100 µM
HCC-2998 colon
  TGI: > 100 µM
HCT-116 colon
  TGI: > 100 µM
HCT-15 colon
  TGI: > 100 µM
HL-60(TB) leukemia
  TGI: > 100 µM
HOP-92 NSCLC
  TGI: > 100 µM
HS 578T breast
  TGI: > 100 µM
HT29 colon
  TGI: > 100 µM
IGROV1 ovarian
  TGI: > 100 µM
KM12 colon
  TGI: > 100 µM
LOX IMVI melanoma
  TGI: > 100 µM
M14 melanoma
  TGI: > 100 µM
MALME-3M melanoma
  TGI: > 100 µM
MCF7 breast
  TGI: > 100 µM
MDA-MB-231 breast
  TGI: > 100 µM
MDA-MB-435
  TGI: > 100 µM
MOLT-4 leukemia
  TGI: > 100 µM
NCI-H226 lung
  TGI: > 100 µM
NCI-H23 lung
  TGI: > 100 µM
NCI-H460 lung
  TGI: > 100 µM
NCI-H522 lung
  TGI: > 100 µM
OVCAR-3 ovarian
  TGI: > 100 µM
OVCAR-4 ovarian
  TGI: > 100 µM
OVCAR-8 ovarian
  TGI: > 100 µM
RPMI-8226 leukemia
  TGI: > 100 µM
RXF 393 renal
  TGI: > 100 µM
SF-268 CNS
  TGI: > 100 µM
SF-295 CNS
  TGI: > 100 µM
SF-539 CNS
  TGI: > 100 µM
SK-MEL-2 melanoma
  TGI: > 100 µM
SK-MEL-28 melanoma
  TGI: > 100 µM
SK-MEL-5 melanoma
  TGI: > 100 µM
SK-OV-3 ovarian
  TGI: > 100 µM
SN12C renal
  TGI: > 100 µM
SNB-19 CNS
  TGI: > 100 µM
SNB-75 CNS
  TGI: > 100 µM
SR leukemia
  TGI: > 100 µM
SW-620 colon
  TGI: > 100 µM
T-47D breast
  TGI: > 100 µM
TK-10 renal
  TGI: > 100 µM
U251 CNS
  TGI: > 100 µM
UACC-257 melanoma
  TGI: > 100 µM
UACC-62 melanoma
  TGI: > 100 µM
UO-31 renal
  TGI: > 100 µM
